US11773157B2, “Compositions and methods for treating and preventing Staphylococcus aureus infections” (priority 2014, dated 2023)

Test system: MRSA (NR 46223)
Experiment: In vivo survival, MRSA bacteremia with vancomycin co-treatment
Set-up: species or system Balb/C mice
Conditions: 0.5 mg vancomycin i.p. alone (0 mg PA8-G3), two hours prior to infection; 3×10^7 CFU i.v.; PBS 10%
Experimental: Referring to FIGS. 8A-C, at day 14, only 10% of the PBS treated mice survived, 30% of the vancomycin treated mice survived. […] Statistical analysis of the animal data was conducted using Kaplan-Meier Survival Analysis with a Mantel-Cox (logrank) test.

CN[C@H](CC(C)C)C(=O)N[C@H]1C(=O)N[C@@H](CC(N)=O)C(=O)N[C@H]2C(=O)N[C@H]3C(=O)N[C@H](C(=O)N[C@H](C(=O)O)c4cc(O)cc(O)c4-c4cc3ccc4O)[C@H](O)c3ccc(c(Cl)c3)Oc3cc2cc(c3O[C@@H]2O[C@H](CO)[C@@H](O)[C@H](O)[C@H]2O[C@H]2C[C@](C)(N)[C@H](O)[C@H](C)O2)Oc2ccc(cc2Cl)[C@H]1O [vancomycin, reference compound]
mice survived at day 14: 30%
